The text below walks through data of patent publication US8536168B2 (Novartis AG, priority 2007, dated 2013).

Molecules are shown by their SMILES. Where two headings read alike, the source gives them in different places.

The subject of one test is Gli-luciferase activity. Nature of the test: Reporter gene assay (RGA) in TMHh12 cells, antagonism of Gli-luciferase activity in the presence of a Smo agonist. The format is cell-based. The method, then: Activity of the compounds was evaluated using a reporter gene assay (RGA) in TMHh12 cells.
A general note: In a reporter assay the amount or activity of a reporter protein is the signal.

In test [1] the target is human Smoothened receptor (Homo sapiens, UniProt Q99835). The test is described as follows: Smo binding assay, displacement of radio-labeled smoothened agonist, filter binding format (human). The following applies: displacement of small molecule agonist of Smoothened, read-out: Human Smo bdg., IC50. The text has this: A Smo binding assay was developed using radio-labeled smoothened agonist for compound competition. Table 9 lists the IC50 for displacement of a small molecule agonist of Smoothened determined in a filter binding format for the mouse and human Smoothened receptor.

Test [2] deals with mouse Smoothened receptor (Mus musculus, UniProt P56726). Nature of the test: Smo binding assay, displacement of radio-labeled smoothened agonist, filter binding format (mouse). The following applies: displacement of small molecule agonist of Smoothened, read-out: Mouse Smo bdg., IC50. The text has this: A Smo binding assay was developed using radio-labeled smoothened agonist for compound competition.

Where [3] appears, read: 25 nM small molecule Smo agonist, read-out: RGA (25 nM Smo agonist) IC50.
Setting [4] is: read-out: RGA (1 nM Smo agonist) IC50, 1 nM small molecule Smo agonist.

Sequence of mouse Smoothened receptor (P56726 33-793): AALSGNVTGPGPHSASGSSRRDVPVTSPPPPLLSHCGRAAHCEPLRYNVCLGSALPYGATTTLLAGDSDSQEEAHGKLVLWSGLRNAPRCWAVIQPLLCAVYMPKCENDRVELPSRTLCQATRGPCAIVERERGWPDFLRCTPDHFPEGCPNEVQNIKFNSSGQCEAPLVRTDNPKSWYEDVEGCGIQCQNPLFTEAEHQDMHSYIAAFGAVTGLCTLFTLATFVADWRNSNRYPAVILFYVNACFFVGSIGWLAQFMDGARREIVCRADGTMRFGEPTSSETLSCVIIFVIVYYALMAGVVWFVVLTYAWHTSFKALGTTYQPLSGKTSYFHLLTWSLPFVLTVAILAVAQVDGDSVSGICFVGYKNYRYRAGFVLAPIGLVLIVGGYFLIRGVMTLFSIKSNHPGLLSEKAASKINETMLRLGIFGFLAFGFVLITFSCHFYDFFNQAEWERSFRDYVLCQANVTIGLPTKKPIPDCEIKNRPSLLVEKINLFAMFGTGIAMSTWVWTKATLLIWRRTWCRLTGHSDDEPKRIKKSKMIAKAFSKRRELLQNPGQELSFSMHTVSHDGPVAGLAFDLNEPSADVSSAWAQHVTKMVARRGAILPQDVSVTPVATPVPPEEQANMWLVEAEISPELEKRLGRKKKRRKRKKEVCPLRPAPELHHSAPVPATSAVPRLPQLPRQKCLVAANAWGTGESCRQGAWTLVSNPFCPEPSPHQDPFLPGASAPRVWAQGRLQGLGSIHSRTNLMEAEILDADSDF
Sequence of human Smoothened receptor (Q99835 28-787): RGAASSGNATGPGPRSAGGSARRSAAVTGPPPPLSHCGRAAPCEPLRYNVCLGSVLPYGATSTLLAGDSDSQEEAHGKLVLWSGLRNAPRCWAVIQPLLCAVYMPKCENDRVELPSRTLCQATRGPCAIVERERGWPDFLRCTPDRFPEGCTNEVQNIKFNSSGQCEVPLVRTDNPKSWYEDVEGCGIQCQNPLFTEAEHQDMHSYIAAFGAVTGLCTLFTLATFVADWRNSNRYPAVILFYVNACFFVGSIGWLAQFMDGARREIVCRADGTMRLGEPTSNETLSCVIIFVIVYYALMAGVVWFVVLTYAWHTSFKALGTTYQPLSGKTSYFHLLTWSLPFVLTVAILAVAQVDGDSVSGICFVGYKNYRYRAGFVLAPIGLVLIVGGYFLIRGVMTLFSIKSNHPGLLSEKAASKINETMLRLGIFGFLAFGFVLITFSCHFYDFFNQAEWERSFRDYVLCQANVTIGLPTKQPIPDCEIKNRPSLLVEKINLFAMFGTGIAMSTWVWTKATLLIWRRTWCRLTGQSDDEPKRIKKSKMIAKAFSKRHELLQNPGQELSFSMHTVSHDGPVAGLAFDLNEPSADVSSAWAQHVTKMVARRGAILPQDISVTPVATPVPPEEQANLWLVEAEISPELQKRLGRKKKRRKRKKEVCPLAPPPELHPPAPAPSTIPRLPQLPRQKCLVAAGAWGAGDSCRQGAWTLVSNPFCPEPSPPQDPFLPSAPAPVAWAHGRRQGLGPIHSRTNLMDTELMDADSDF

For the molecule `O=C(Cc1ccc(N2CCN(c3nnc(Cc4ccccc4)c4ccccc34)CC2)nc1)N1CCCC1` [Example 171, 2-{6-[4-(4-Benzyl-phthalazin-1-yl)-piperazin-1-yl]-pyridin-3-yl}-1-pyrrolidin-1-yl-ethanone], the IC50 (as a rule, the concentration needed to halve the response being measured) is 100 to 1000 nM in the test on Gli-luciferase activity (setting [3]), less than 100 nM in the test with Gli-luciferase activity (setting [4]), less than 100 nM in test [1] and less than 100 nM in test [2].
On to `CCOC(=O)c1ccc(N2CCN(c3nnc(Cc4ccccc4)c4ccccc34)CC2)cc1` [Example 5], for which the concentration for half-maximal inhibition (IC50) was 100 to 1000 nM in the test with Gli-luciferase activity (setting [3]), less than 100 nM in the test with Gli-luciferase activity (setting [4]), less than 100 nM in test [1] and less than 100 nM in test [2].
Regarding `OC(c1ccc(N2CCN(c3nnc(Cc4ccccc4)c4ccccc34)CC2)nc1)C(F)(F)F` (centres unmarked) [Example 109], the 50% inhibitory concentration (IC50) in the test on Gli-luciferase activity (setting [3]) is 100 to 1000 nM; in the test on Gli-luciferase activity (setting [4]), less than 100 nM; in test [1] it was less than 100 nM; in test [2] it was less than 100 nM.
Regarding `N#Cc1ccc(N2CCN(c3nnc(Cc4cccc(Br)c4)c4ccccc34)CC2)nc1` [Example 67], the half-maximal inhibitory concentration (IC50) is 100 to 1000 nM in the test on Gli-luciferase activity (setting [3]), 100 to 1000 nM in the test with Gli-luciferase activity (setting [4]), 100 to 1000 nM in test [1] and less than 100 nM in test [2].
Take `FC1CCN(Cc2ccc(N3CCN(c4nnc(Cc5ccccc5)c5ccccc45)CC3)nc2)CC1` [Example 227]: the IC50 in the test on Gli-luciferase activity (setting [3]) was 100 to 1000 nM; with Gli-luciferase activity (setting [4]), less than 100 nM; in test [1] it was 100 to 1000 nM; in test [2] it was less than 100 nM.
For the molecule `CN(CCO)C(=O)c1ccc(N2CCN(c3nnc(Cc4ccc(F)cc4F)c4ccccc34)CC2)nc1` [Example 199], the half-maximal inhibitory concentration (IC50) in the test with Gli-luciferase activity (setting [3]) is 100 to 1000 nM; in the test with Gli-luciferase activity (setting [4]), less than 100 nM; in test [1], 100 to 1000 nM; in test [2], 100 to 1000 nM.
`N#Cc1ccc(C2CCN(c3nnc(Cc4ccccc4)c4ccccc34)CC2)cc1` [Example 116]: the half-inhibitory concentration (IC50) (with Gli-luciferase activity (setting [3]); with Gli-luciferase activity (setting [4]); in test [1]; in test [2]) was 1000 to 10000 nM throughout.
In the case of `N#Cc1ccc(N2CCC(c3cn(Cc4ccc(F)cc4)c4ccccc34)CC2)nc1` [Example 98], the half-inhibitory concentration (IC50) in the test with Gli-luciferase activity (setting [3]) was in the range of 1000 to 10000 nM; with Gli-luciferase activity (setting [4]), 100 to 1000 nM; in test [1], 1000 to 10000 nM; in test [2] it was 1000 to 10000 nM.
Consider `CC(C)C(O)c1ccc(N2CCN(c3nnc(Cc4ccccc4)c4ccccc34)CC2)nc1` (centres unmarked) [Example 220], for which the IC50 (with Gli-luciferase activity (setting [3]); with Gli-luciferase activity (setting [4]); in test [1]; in test [2]) was less than 100 nM each time.
For the molecule `COc1cc(=O)[nH]c(N2CCN(c3nnc(Cc4ccccc4)c4ccccc34)CC2)n1` [Example 46], the IC50 fell in the range of 10000 to 40000 nM with Gli-luciferase activity (setting [3]), 1000 to 10000 nM in the test on Gli-luciferase activity (setting [4]), 100 to 1000 nM in test [1] and 100 to 1000 nM in test [2].
On to `N#Cc1ccc(N2CCN(c3nnc(Cc4ccc(Cl)c(Cl)c4)c4ccccc34)CC2)nc1` [Example 176], for which the IC50 in the test with Gli-luciferase activity (setting [3]) is 1000 to 10000 nM; with Gli-luciferase activity (setting [4]), 100 to 1000 nM; in test [1], 100 to 1000 nM; in test [2] it was 100 to 1000 nM.
Take `O=C(NC1CNC1)c1ccc(N2CCN(c3nnc(Cc4ccccc4)c4ccccc34)CC2)nc1` [Example 54y]: the half-inhibitory concentration (IC50) (in the test on Gli-luciferase activity (setting [3]); in the test on Gli-luciferase activity (setting [4]); in test [1]; in test [2]) was 1000 to 10000 nM throughout.
Regarding `CN(C)C(=O)OCc1ccc(N2CCN(c3nnc(Cc4ccccc4)c4ccccc34)CC2)nc1` [Example 160, Dimethyl-carbamic acid 6-[4-(4-benzyl-phthalazin-1-yl)-piperazin-1-yl]-pyridin-3-ylmethyl ester], the IC50 in the test on Gli-luciferase activity (setting [3]) was 100 to 1000 nM; in the test with Gli-luciferase activity (setting [4]), less than 100 nM; in test [1], 100 to 1000 nM; in test [2] it was 100 to 1000 nM.
For `Cc1c(Cc2ccccc2)nnc(N2CCN(c3ccc(C(F)(F)F)cn3)CC2)c1CNCc1ccccc1` [Example 241, N-benzyl-1-(6-benzyl-5-methyl-3-(4-(5-(trifluoromethyl)pyridin-2-yl)piperazin-1-yl)pyridazin-4-yl)methanamine], the half-maximal inhibitory concentration (IC50) was in the range of 10000 to 40000 nM with Gli-luciferase activity (setting [3]), 1000 to 10000 nM in the test on Gli-luciferase activity (setting [4]), 1000 to 10000 nM in test [1] and 1000 to 10000 nM in test [2].
Turning to `CCOC(=O)c1cnc(N2CCN(c3nnc(Cc4ccccc4)c4ccccc34)CC2)nc1C(F)(F)F` [Example 137], the IC50 (in the test on Gli-luciferase activity (setting [3]); in the test with Gli-luciferase activity (setting [4]); in test [1]; in test [2]) was less than 100 nM each time.
In the case of `CC(O)(CN1CCC(O)CC1)c1cnc(N2CCN(c3nnc(Cc4ccccc4)c4ccccc34)CC2)cn1` (centres unmarked) [Example 170, 1-{2-[4-(4-Benzyl-phthalazin-1-yl)-3,4,5,6-tetrahydro-2H-[1,2′]bipyrazinyl-5′-yl]-2-hydroxy-propyl}-piperidin-4-ol], the IC50 is 100 to 1000 nM in the test with Gli-luciferase activity (setting [3]), less than 100 nM with Gli-luciferase activity (setting [4]), 100 to 1000 nM in test [1] and 100 to 1000 nM in test [2].
As for `CC(=O)Nc1ccc(C2CCN(c3nnc(Cc4ccccc4)c4ccccc34)CC2)cc1` [Example 129], the IC50 in the test on Gli-luciferase activity (setting [3]) fell in the range of 1000 to 10000 nM; in the test with Gli-luciferase activity (setting [4]), 100 to 1000 nM; in test [1], 1000 to 10000 nM; in test [2], 100 to 1000 nM.
With `N#Cc1ccc(N2CCN(c3nnc(Cc4ccc(F)cc4)c4ccccc34)CC2)nc1` [Example 181], the half-inhibitory concentration (IC50) in the test on Gli-luciferase activity (setting [3]) was 100 to 1000 nM; in the test with Gli-luciferase activity (setting [4]), less than 100 nM; in test [1], 100 to 1000 nM; in test [2], less than 100 nM.
As for `COCC(=O)NC(C)(C)c1ccc(N2CCN(c3nnc(Cc4ccccc4)c4ccccc34)CC2)nc1` [Example 121, N-(2-(6-(4-(4-Benzylphthalazin-1-yl)piperazin-1-yl)pyridin-3-yl)propan-2-yl)-2-methoxyacetamide], the IC50 (in the test with Gli-luciferase activity (setting [3]); in the test on Gli-luciferase activity (setting [4]); in test [1]; in test [2]) was less than 100 nM throughout.
Take `COCC(=O)NCc1ccc(N2CCN(c3nnc(Cc4ccccc4)c4ccccc34)CC2)nc1` [Example 208]: the 50% inhibitory concentration (IC50) with Gli-luciferase activity (setting [3]) is less than 100 nM; with Gli-luciferase activity (setting [4]) it was less than 100 nM; in test [1] it was 100 to 1000 nM; in test [2], 100 to 1000 nM.
For `OC1CCN(Cc2ccc(N3CCN(c4nnc(Cc5ccccc5)c5ccccc45)CC3)nc2)C1` (centres unmarked) [Example 223], the 50% inhibitory concentration (IC50) is 100 to 1000 nM with Gli-luciferase activity (setting [3]), less than 100 nM in the test on Gli-luciferase activity (setting [4]), 100 to 1000 nM in test [1] and less than 100 nM in test [2].
For the molecule `c1ccc(Cc2nnc(N3CCN(c4ccc(CNC5CCOCC5)cn4)CC3)c3ccccc23)cc1` [Example 225], the IC50 in the test on Gli-luciferase activity (setting [3]) is 100 to 1000 nM; in the test on Gli-luciferase activity (setting [4]), less than 100 nM; in test [1] it was 100 to 1000 nM; in test [2], 100 to 1000 nM.
On to `c1ccc(Cc2nnc(N3CCN(c4ccc(CN5CCOCC5)cn4)CC3)c3ccccc23)cc1` [Example 222, 1-Benzyl-4-[4-(5-morpholin-4-ylmethyl-pyridin-2-yl)-piperazin-1-yl]-phthalazine], for which the 50% inhibitory concentration (IC50) (with Gli-luciferase activity (setting [3]); in the test with Gli-luciferase activity (setting [4]); in test [1]; in test [2]) was less than 100 nM each time.
Turning to `COC(=O)CNC(=O)c1ccc(N2CCN(c3nnc(Cc4ccccc4)c4ccccc34)CC2)nc1` [Example 54r], the half-maximal inhibitory concentration (IC50) in the test with Gli-luciferase activity (setting [3]) is 100 to 1000 nM; with Gli-luciferase activity (setting [4]), 100 to 1000 nM; in test [1] it was 100 to 1000 nM; in test [2], less than 100 nM.
`C[C@H]1CN(c2nnc(Cc3ccccc3)c3ccccc23)CCN1c1ccc(C#N)cn1` [Example 143, 6-[(S)-4-(4-Benzyl-phthalazin-1-yl)-2-methyl-piperazin-1-yl]-nicotinonitrile]: the IC50 with Gli-luciferase activity (setting [3]) was 100 to 1000 nM; in the test with Gli-luciferase activity (setting [4]) it was less than 100 nM; in test [1] it was less than 100 nM; in test [2] it was less than 100 nM.
Consider `C[C@H]1CN(c2ccc(C(C)(C)O)cn2)CCN1c1nnc(Cc2ccccc2)c2ccccc12` [Example 155], for which the 50% inhibitory concentration (IC50) (in the test with Gli-luciferase activity (setting [3]); in the test on Gli-luciferase activity (setting [4]); in test [1]; in test [2]) was less than 100 nM each time.
Turning to `N#Cc1ccc(N2CCN(c3nnc(Cc4ccccc4)c4ccccc34)CC2)nc1` [Example 1, 6-[4-(4-Benzyl-phthalazin-1-yl)-piperazin-1-yl]-nicotinonitrile], the IC50 in the test with Gli-luciferase activity (setting [3]) is 1000 to 10000 nM; with Gli-luciferase activity (setting [4]), less than 100 nM; in test [1], 100 to 1000 nM; in test [2], less than 100 nM.
In the case of `CCC(=O)NCc1ccc(N2CCN(c3nnc(Cc4ccccc4)c4ccccc34)CC2)nc1` [Example 207], the IC50 in the test with Gli-luciferase activity (setting [3]) was 100 to 1000 nM; in the test with Gli-luciferase activity (setting [4]), less than 100 nM; in test [1], 100 to 1000 nM; in test [2], 100 to 1000 nM.
As for `CC1(c2ccc(N3CCN(c4nnc(Cc5ccccc5)c5ccccc45)CC3)nc2)OCCO1` [Example 164, 1-Benzyl-4-(4-(5-(2-methyl-1,3-dioxolan-2-yl)pyridin-2-yl)piperazin-1-yl)phthalazine], the IC50 (with Gli-luciferase activity (setting [3]); with Gli-luciferase activity (setting [4]); in test [1]; in test [2]) was less than 100 nM in each case.
For `COCC(=O)OCc1ccc(N2CCN(c3nnc(Cc4ccccc4)c4ccccc34)CC2)nc1` [Example 159, Methoxy-acetic acid 6-[4-(4-benzyl-phthalazin-1-yl)-piperazin-1-yl]-pyridin-3-ylmethyl ester], the concentration for half-maximal inhibition (IC50) with Gli-luciferase activity (setting [3]) was in the range of 1000 to 10000 nM; in the test with Gli-luciferase activity (setting [4]), 100 to 1000 nM; in test [1] it was 100 to 1000 nM; in test [2], 100 to 1000 nM.
For the molecule `N#Cc1ccc(N2CCN(c3nnc(Cc4ccc(Cl)cc4)c4ccccc34)CC2)nc1` [Example 59], the IC50 with Gli-luciferase activity (setting [3]) was 100 to 1000 nM; in the test on Gli-luciferase activity (setting [4]) it was less than 100 nM; in test [1], less than 100 nM; in test [2], less than 100 nM.
Take `CN(C)CC(=O)NCc1ccc(N2CCN(c3nnc(Cc4ccccc4)c4ccccc34)CC2)nc1` [Example 212]: the IC50 with Gli-luciferase activity (setting [3]) is 100 to 1000 nM; in the test on Gli-luciferase activity (setting [4]), less than 100 nM; in test [1] it was less than 100 nM; in test [2], less than 100 nM.
